Test results as given in patent publication US10472366B2, “Glucuronide prodrugs of tofacitinib” (THERAVANCE BIOPHARMA R&D IP, LLC, priority 2017, dated 2019).
Where “and” joins values, the source holds several entries; their conditions need not be identical. Equal values may be shown once.

What was measured:
[1] = system: β-glucuronidase in rat colon feces; test: Rat colon fecal homogenate stability assay; format: in vitro ADME; conditions: in vitro half-life in rat fecal supernatant-homogenate, anaerobic, 10 μM substrate, individual values when assay repeated; for half-life at 10 μM: male, rat, rat colon fecal supernatant-homogenate, read-out: T½
From the text: The compounds of the present invention contain a glucuronide prodrug moiety that is expected to be cleaved by β-glucuronidase enzyme. The objective of this assay was to determine the half-life for compounds of the present invention in the presence of β-glucuronidase in rat colon feces.
Following sacrifice of a naïve male rat (˜300 g) by cardiac puncture exsanguination, the colon was ligated and removed to an anaerobic chamber (AS-580, Anaerobe Systems). The fecal content was removed within the chamber and was diluted 1:10 with phosphate buffer (1 gram fecal content to 9 mL phosphate buffer) and the resulting mixture was homogenized using a handheld Omni Tissue Master. The fecal homogenate was centrifuged at 2000 g for 10 min to remove bulk material and the supernatant was removed and used for the incubations.
DMSO stock solutions (10 mM) of the test compounds and sulfasalazine (control) were prepared. Sulfasalazine was used as a positive control to confirm viability of the fecal supernatant-homogenate (see, e.g., Azad Khan et al., Clinical Science (1983) 64, 349-354). If the in vitro half-life (T½) for sulfasalazine in the fecal sample was less than 30 min, the fecal sample was deemed to be viable and in true anaerobic conditions. However, if the T½ for sulfasalazine was greater than 30 min, the fecal sample was typically contaminated with oxygen and was not viable. The final substrate concentration of each assay was 10 μM. Reactions were started by adding a 5 μL aliquot of diluted test compound stock solution into 300 μL of rat fecal supernatant-homogenate. At 0, 15, 30, 60, 90, and 120 min post reaction initiation, a 50 μL aliquot was removed and added to a mixture of 200 μL of acetonitrile with 3% formic acid and an internal standard. All samples were centrifuged at 2000 g for 10 min after which 50 μL of supernatant was diluted into 150 μL of water for analysis on an LC-MS system. In vitro half-lives (T½) for the test compounds were calculated as follows: T½=0.693/elimination rate constant. When the assay was performed more than once, individual values are reported.

[2] = system: oxazolone-induced colitis; test: Mouse model of oxazolone-induced colitis; format: in vivo; conditions: PO
Method: Oxazolone-induced colitis is an experimental model that has a histological resemblance to human ulcerative colitis (Heller et al. […], 2002, 17, 629-638). Adult BALB/C mice (25-28 g, 9-12 weeks of age) from BioNeeds (India) were used in the assay. On Day 1, animals were lightly anesthetized with isoflurane and the hairs between the shoulder were carefully removed. Oxazolone (6 mg/mouse, 100 μL, 4:1 acetone:olive oil formulation) or vehicle solution was slowly applied to the bare skin patch to induce skin sensitization. Six days after skin sensitization, the mice were fasted overnight and then anesthetized with ketamine and xylazine administered intraperitoneally. A 1 mL syringe filled with oxazolone solution (0.5 mg/50 μL/mouse in 50% ethanol) or 50% ethanol/saline was inserted carefully ˜3.8 cm into the colon of the mouse. Animals were kept in a head down position and oxazolone or vehicle solution was rectally instilled very slowly over a minute. The mice were held vertically (head down) for another minute to ensure that the entire oxazolone or vehicle solution remained inside the colon. Test compound treatment (PO, BID or TID) or vehicle was initiated the evening prior to the oxazolone intrarectal (IR) challenge. On both first (Day 1) and second (Day 2) days post-oxazolone IR challenge, the Disease Activity Index (DAI) was assessed by treatment-blinded experimenters for each mouse, according to the following subscores: stool consistency (0, normal; 2, loose; 4, diarrhea), gross bleeding and hemoccult test (0, absence; 2, blood tinged; 4, overt blood presence), and weight loss (0, none; 1, 1%-5%; 2, 6^%-10%; 3, 11%-15%; 4, more than 15%); DAI=average of (stool consistency+blood presence+weight loss scores).
An area-under-the-curve (AUC) calculation based on total DAI scores was performed to track disease progression during the course of the experiment. AUC for each experimental group was calculated as: AUC=[(Day 1−Day 0)*Average (DAI Score of Day 0 & Day 1)]+[(Day 2−Day 1)*Average (DAI Score of Day 1 & Day 2)]. A Student's t-test compared the DAI AUC score of the vehicle/vehicle and vehicle/oxazolone groups to evaluate whether disease was induced following oxazolone treatment. This was followed by a one-way analysis of variance (ANOVA), with Dunnett's post hoc test, to compare the DAI AUC score of the vehicle/oxazolone and test compound/oxazolone groups. Statistical significance was defined by an α level set at p<0.05.

[3] = Oral pharmacokinetics in rat assay; format: in vivo; conditions: liberated tofacitinib AUC0-6 h in colon tissue; male Sprague Dawley rats, single PO dose 5 mg/kg of test compound
Method: When cleaved by β-glucuronidase enzyme, the compounds of the present invention release tofacitinib. The object of this assay was to determine tofacitinib exposure (AUC0-6 h) in colon tissue and plasma following oral dosing of compounds of the present invention in rats.
Male Sprague Dawley rats (n=2/time point) received a single PO oral gavage dose (5 mg/kg in 1:20 mixture of 5% DMSO and 1% HPMC) of test compounds. At 0.5, 1, 3, 6 and 24 h post-dosing, rats were sacrificed via cardiac puncture exsanguination, and blood samples were taken and placed into sample tubes (Microtainer, Becton, Dickinson and Company) containing sodium fluoride and then placed on ice. Plasma was obtained by centrifugation (Eppendorf centrifuge, 5804R) for 4 minutes at approximately 12,000 rpm at 4° C.
The colons were removed from exsanguinated rats and the colon contents gently removed. The colons were flushed with saline and patted dry. The colons were then homogenized in 3× the weight of sterile water using a tissue homogenizer (Precellys homogenizer, Bertin Instruments) at approximately 4° C. All samples were stored at −80° C. for later bioanalysis.
The concentration of tofacitinib in each sample was determined as follows: the plasma and colon samples were vortexed, combined with a 50 μL aliquot of rat plasma, extracted with 200 μL of ACN containing an internal standard and quantified against the internal standard by LC-MS. An area-under-the-concentration curve (AUC0-6 h) was calculated for plasma and colon test compound and liberated tofacitinib. A key parameter to assess suitability for localized delivery of tofacitinib to the colon was the tofacitinib colon to plasma AUC ratio.

Molecule `Cc1ccc(O[C@@H]2O[C@H](C(=O)O)[C@@H](O)[C@H](O)[C@H]2O)c(N(C)C(=O)n2ccc3c(N(C)[C@H]4CN(C(=O)CC#N)CC[C@H]4C)ncnc32)c1` [Compound III-3, (2S,3S,4S,5R,6S)-6-(2-(4-(((3R,4R)-1-(2-Cyanoacetyl)-4-methylpiperidin-3-yl)(methyl)amino)-N-methyl-7H-pyrrolo[2,3-d]pyrimidine-7-carboxamido)-4-methylphenoxy)-3,4,5-trihydroxytetrahydro-2H-pyran-2-carboxylic Acid] has a T½ [1] of less than 15 min and a half-life at 10 μM [1] of 20 min.
In the case of `C[C@@H]1CCN(C(=O)CC#N)C[C@@H]1N(C)c1ncnc2c1ccn2C(=O)N(C)c1cc(C(F)(F)F)ccc1O[C@@H]1O[C@H](C(=O)O)[C@@H](O)[C@H](O)[C@H]1O` [Compound III-4, (2S,3S,4S,5R,6S)-6-(2-(4-(((3R,4R)-1-(2-cyanoacetyl)-4-methylpiperidin-3-yl)(methyl)amino)-N-methyl-7H-pyrrolo[2,3-d]pyrimidine-7-carboxamido)-4-(trifluoromethyl)phenoxy)-3,4,5-trihydroxytetrahydro-2H-pyran-2-carboxylic Acid], the T½ [1] was 6 min and < 15 min.
Work on `C[C@@H]1CCN(C(=O)CC#N)C[C@@H]1N(C)c1ncnc2c1ccn2C(=O)N(C)c1cc(Cl)ccc1O[C@@H]1O[C@H](C(=O)O)[C@@H](O)[C@H](O)[C@H]1O` [Compound III-5, (2S,3S,4S,5R,6S)-6-(4-Chloro-2-(4-(((3R,4R)-1-(2-cyanoacetyl)-4-methylpiperidin-3-yl)(methyl)amino)-N-methyl-7H-pyrrolo[2,3-d]pyrimidine-7-carboxamido)phenoxy)-3,4,5-trihydroxytetrahydro-2H-pyran-2-carboxylic Acid] yielded a half-life at 10 μM [1] of less than 15 min.
For `C[C@@H]1CCN(C(=O)CC#N)C[C@@H]1N(C)c1ncnc2c1ccn2C(=O)N(C)Cc1ccccc1O[C@@H]1O[C@H](C(=O)O)[C@@H](O)[C@H](O)[C@H]1O` [Compound III-6, (2S,3S,4S,5R,6S)-6-(2-((4-(((3R,4R)-1-(2-Cyanoacetyl)-4-methylpiperidin-3-yl)(methyl)amino)-N-methyl-7H-pyrrolo[2,3-d]pyrimidine-7-carboxamido)methyl)phenoxy)-3,4,5-trihydroxytetrahydro-2H-pyran-2-carboxylic Acid], the T½ [1] was <15, <15 min, the half-life at 10 μM [1] was less than 15 min and the “reversal of oxazolone-induced colitis (DAI AUC score)” value (“reversal of oxazolone-induced colitis” for short) ([2]; 3, 10 and 30 mg/kg, BID, BALB/C mice, vs vehicle/oxazolone, p<0.05) was “did not produced a statistically significant effect”.
For `C[C@@H]1CCN(C(=O)CC#N)C[C@@H]1N(C)c1ncnc2c1ccn2C(=O)N(C)Cc1cc([N+](=O)[O-])ccc1O[C@@H]1O[C@H](C(=O)O)[C@@H](O)[C@H](O)[C@H]1O` [Compound III-7, (2S,3S,4S,5R,6S)-6-(2-((4-(((3R,4R)-1-(2-Cyanoacetyl)-4-methylpiperidin-3-yl)(methyl)amino)-N-methyl-7H-pyrrolo[2,3-d]pyrimidine-7-carboxamido)methyl)-4-nitrophenoxy)-3,4,5-trihydroxytetrahydro-2H-pyran-2-carboxylic Acid], the T½ [1] was <15, <15 min and the half-life at 10 μM [1] was less than 15 min.
With `C[C@@H]1CCN(C(=O)CC#N)C[C@@H]1N(C)c1ncnc2c1ccn2C(=O)N(C)Cc1ccccc1NC(=O)O[C@@H]1O[C@H](C(=O)O)[C@@H](O)[C@H](O)[C@H]1O` [Compound IV-1] the T½ [1] was 1 min and < 15 min and the “Colon AUC” value [3] was 5.15 µg·h/g.
In the case of `C[C@@H]1CCN(C(=O)CC#N)C[C@@H]1N(C)c1ncnc2c1ccn2C(=O)N(C)CCN(C)C(=O)OCc1ccccc1O[C@@H]1O[C@H](C(=O)O)[C@@H](O)[C@H](O)[C@H]1O` [Compound V-1, (2S,3S,4S,5R,6S)-6-(2-((((2-(4-(((3R,4R)-1-(2-Cyanoacetyl)-4-methylpiperidin-3-yl)(methyl)amino)-N-methyl-7H-pyrrolo[2,3-d]pyrimidine-7-carboxamido)ethyl)(methyl)carbamoyl)oxy)methyl)phenoxy)-3,4,5-trihydroxytetrahydro-2H-pyran-2-carboxylic Acid], the T½ [1] was <15, <15 min and the half-life at 10 μM [1] was less than 15 min.
Work on `C[C@@H]1CCN(C(=O)CC#N)C[C@@H]1N(C)c1ncnc2c1ccn2C(=O)N(C)CCN(C)C(=O)OCc1ncccc1O[C@@H]1O[C@H](C(=O)O)[C@@H](O)[C@H](O)[C@H]1O` [Compound V-2, (2S,3S,4S,5R,6S)-6-((2-((((2-(4-(((3R,4R)-1-(2-Cyanoacetyl)-4-methylpiperidin-3-yl)(methyl)amino)-N-methyl-7H-pyrrolo[2,3-d]pyrimidine-7-carboxamido)ethyl)(methyl)carbamoyl)oxy)methyl)pyridin-3-yl)oxy)-3,4,5-trihydroxytetrahydro-2H-pyran-2-carboxylic Acid] yielded a half-life at 10 μM [1] of less than 15 min.
In the case of `C[C@@H]1CCN(C(=O)CC#N)C[C@@H]1N(C)c1ncnc2[nH]ccc12` [tofacitinib, 3-((3R,4R)-4-methyl-3-(methyl(7H-pyrrolo[2,3-d]pyrimidin-4-yl)amino)piperidin-1-yl)-3-oxopropanenitrile], the “reversal of oxazolone-induced colitis” value ([2]; positive control, 60 mg/kg, experiment with Compound 11-6) was “did produce a statistically significant reversal”, the “reversal of oxazolone-induced colitis” value ([2]; positive control, 30 and 60 mg/kg, BID, experiment with Compound II-1) was “statistically significant reversal” and the “reversal of oxazolone-induced colitis” value ([2]; positive control, 30 and 60 mg/kg, BID, experiment with Compound III-1) was “did not produce a statistically significant reversal”. For the same molecule, the “reversal of oxazolone-induced colitis” value ([2]; positive control, 30 and 60 mg/kg, BID, experiment with Compound III-2) was “statistically significant reversal”.
